The values that follow come from article PMC12299285, “Isolation and Identification of Secondary Metabolites in Rheum tataricum L.fil. Growing in Kazakhstan and Surveying of Its Anticancer Potential” (Molecules, 2025).

Where two headings read alike, the source gives them in different places. Bounds are passed on as bounds.

For test [1], the system named is C33 A (HPV-negative human cervical cancer cell line). In words: MTT cytotoxicity assay, C33 A cervical cancer cells. The test is classed as cell-based. As to conditions: read-out: Growth Inhibition of Cells (GI50 ± SEM) C33 A (HPV-Negative). On the technique in general: Tetrazolium assays rely on reduction of a dye to a coloured formazan, in cell work by metabolically active cells.

For test [2], the system named is CaSki (HPV16-positive human cervical cancer cell line). In words: MTT cytotoxicity assay, CaSki cervical cancer cells. The class given is cell-based. As to conditions: 48 h incubation, three independent experiments, read-out: Growth Inhibition of Cells (GI50 ± SEM) CaSki (HPV-16).
For test [3], the system named is HeLa (HPV18-positive human cervical cancer cell line). In words: MTT cytotoxicity assay, HeLa cervical cancer cells. The conditions noted are these: 48 h incubation, three independent experiments, read-out: Growth Inhibition of Cells (GI50 ± SEM) HeLa (HPV-18). The class given is cell-based.
For test [4], the system named is MCF-7 breast adenocarcinoma cells. In words: MTT cytotoxicity assay, MCF-7 breast adenocarcinoma cells. The conditions noted are these: three independent experiments, read-out: Growth Inhibition of Cells (GI50 ± SEM) MCF-7. The test is classed as cell-based, human.
The subject of test [5] is DU-145 prostate cancer cell line. In words: MTT cytotoxicity assay, DU-145 prostate cancer cells. The test is classed as cell-based, human. As to conditions: three independent experiments, read-out: Growth Inhibition of Cells (GI50 ± SEM) DU-145.
The subject of test [6] is SNB-19 glioblastoma cell line. The test is described as follows: MTT cytotoxicity assay, SNB-19 glioblastoma cells. The test is classed as cell-based, human. The conditions noted are these: three independent experiments, read-out: Growth Inhibition of Cells (GI50 ± SEM) SNB-19.
Test [7] deals with T98G glioblastoma cell line. The test is described as follows: MTT cytotoxicity assay, T98G glioblastoma cells. The test is classed as cell-based, human. As to conditions: 48 h incubation, three independent experiments, read-out: Growth Inhibition of Cells (GI50 ± SEM) T98G.
Test [8] deals with Normal epithelial VERO cells. In words: MTT cytotoxicity assay, normal epithelial VERO cells (non-cancer control). As to conditions: 48 h incubation, three independent experiments, read-out: Growth Inhibition of Cells (GI50 ± SEM) VERO. The test is classed as cell-based, African green monkey.
Details of test [9]: method as in PMID 21725818. The conditions noted are these: mice; cited from earlier work.
On the set-up of test [10]: method as in PMID 21725818. The conditions noted are these: rats; cited from earlier work.
The test system of a further test is activated macrophages. The arrangement: method as in PMID 9810263. The conditions noted are these: in vivo; cited from earlier work.
[11] abbreviates: Homo sapiens, MCF7, 48 h, 48 h incubation.
[12] abbreviates: Homo sapiens, DU-145, 48 h incubation.
The mark [13] stands for this setting: Homo sapiens, SNB-19, 48 h incubation.
Setting [14] is: Chlorocebus sabaeus, Vero, 48 h.
[15] abbreviates: Homo sapiens, C-33-A, MTT, 48 h incubation, three independent experiments.

Broadly, the GI50 is the concentration giving 50% growth inhibition. Take “1-O-Galloyl-β-D-glucopyranose [Compound 6]”: the GI50 came out at 27 ± 2.6 µM in [1] (MTT, 48 h incubation, three independent experiments); 18 ± 1.4 µM in test [2]; 29 ± 2.4 µM in test [3]; 31 ± 0.7 µM in test [4] (48 h incubation); 67 ± 6.4 µM in test [5] (48 h incubation); 26 ± 1.2 µM in test [6] (48 h incubation). Further, the GI50 in test [7] is 21 ± 0.8 µM; in test [8], greater than 100 µM.

As for `C[C@H](CCc1ccc(O)cc1)O[C@@H]1O[C@H](CO)[C@@H](O)[C@H](O)[C@H]1O` [Compound 1, (R)-4-(4-Hydroxyphenyl)-2-butanol 2-β-D-glucopyranoside], the concentration for 50% growth inhibition (GI50) in test [1] (Homo sapiens, C-33-A, 48 h) turned out to be 27 ± 1.4 µM; in test [2] (Homo sapiens, Ca-Ski), 12 ± 0.7 µM; in test [3] (Homo sapiens, HeLa), 16 ± 0.8 µM; in test [4] (setting [11]) it was 10 ± 1.8 µM; in test [5] (setting [12]), 21 ± 2.3 µM; in test [6] (setting [13]), 23 ± 4.1 µM. Besides, the GI50 in test [7] (Homo sapiens, T98G) was 29 ± 2.5 µM; in test [8], greater than 100 µM; in test [8] (setting [14]) it was greater than 83 µM. Besides, the analgesic actions entry in [9] is given as “significant analgesic actions”. For the same compound, the anti-inflammatory actions result in test [10] is reported as “anti-inflammatory actions”.

`C[C@@H](CCc1ccc(O)cc1)O[C@@H]1O[C@H](CO)[C@@H](O)[C@H](O)[C@H]1O` [Compound 3, (S)-4-(4-Hydroxyphenyl)-2-butanol 2-β-D-glucopyranoside]: the “NO production by activated macrophages” value in the test with activated macrophages was “suppressed NO production”.

Consider `C[C@@H](O)CCc1ccc(O)cc1` [Compound 4, (R)-4-(4-Hydroxyphenyl)-2-butanol], for which the GI50 was found to be 28 ± 0.5 µM in test [1] (setting [15]); 10 ± 0.6 µM in [2] (Homo sapiens, Ca-Ski); 29 ± 0.7 µM in [3] (Homo sapiens, HeLa); 11 ± 1.4 µM in test [4] (setting [11]); 21 ± 0.8 µM in test [5] (setting [12]); 15 ± 0.9 µM in test [6] (setting [13]). For the same compound, the GI50 in test [7] (Homo sapiens, T98G) is 18 ± 1.1 µM; in [8] it was greater than 100 µM; in [8] (setting [14]), greater than 83 µM.

With `C[C@H](O)CCc1ccc(O)cc1` [Compound 5, (S)-4-(4-Hydroxyphenyl)-2-butanol], the “NO production by activated macrophages” value in the test with activated macrophages is “suppressed NO production”.

In the case of `CC(=O)CCc1ccc(O)cc1` [Compound 9, 4-(4-Hydroxyphenyl)butan-2-one], the GI50 in test [1] (setting [15]) stood at 19 ± 2.2 µM; in test [2] (Homo sapiens, Ca-Ski), 20 ± 1.5 µM; in [3] (Homo sapiens, HeLa), 23 ± 3.7 µM; in [4] (setting [11]) it was 21 ± 2.1 µM; in test [5] (setting [12]), 60 ± 1.7 µM; in test [6] (setting [13]), 33 ± 1.8 µM. Further, the GI50 was 19 ± 0.9 µM in test [7] (Homo sapiens, T98G); greater than 100 µM in test [8]; greater than 83 µM in [8] (setting [14]).

Turning to `COc1ccc(C=Cc2cc(O)cc(OC3OC(CO)C(O)C(O)C3O)c2)cc1` [Compound 11, 3,5-Dihydroxy-4′-methoxystilbene-3-O-β-D-glucopyranoside], the GI50 in [3] (Homo sapiens, HeLa) was 17 ± 0.9 µM; in test [4] (48 h incubation) it was 8 ± 1.8 µM; in test [4] (setting [11]), 7 to 8 µM; in test [6] (setting [13]) it was 13 ± 1.1 µM; in test [7] (Homo sapiens, T98G), 18 ± 3.5 µM; in test [8] it was 92 ± 7.9 µM. Further, the GI50 in test [8] (setting [14]) was greater than 83 µM.

Regarding `OC[C@H]1O[C@@H](Oc2ccc(/C=C/c3cc(O)cc(O)c3)cc2)[C@H](O)[C@@H](O)[C@@H]1O` [Compound 12, (E)-resveratrol 4′-O-β-D-glucopyranoside], the concentration for 50% growth inhibition (GI50) in test [3] (Homo sapiens, HeLa) was 18 ± 1.6 µM; in test [4] (48 h incubation), 7 ± 1.2 µM; in test [4] (setting [11]), 7 to 8 µM; in test [6] (setting [13]) it was 9.2 ± 0.8 µM; in test [7] (Homo sapiens, T98G), 21 ± 1.7 µM; in test [8], 98 ± 4.8 µM. Moreover, the GI50 in [8] (setting [14]) is greater than 83 µM.

Turning to `COc1cccc2c1C(=O)c1c(O)c3c(c(O)c1C2=O)C[C@@](O)(C(=O)CO)C[C@@H]3O[C@H]1C[C@H](N)[C@H](O)[C@H](C)O1` [Doxorubicin, reference compound], the GI50 came to 10.1 ± 0.7 µM in test [2] (Homo sapiens, Ca-Ski); 6.1 ± 0.7 µM in test [3] (Homo sapiens, HeLa); 5.2 ± 0.8 µM in test [4] (Homo sapiens, MCF7, 48 h incubation); 15 ± 0.3 µM in test [5] (setting [12]); 7.6 ± 0.7 µM in test [6] (setting [13]); 13 ± 0.5 µM in test [7] (Homo sapiens, T98G). In addition, the GI50 in test [8] (Chlorocebus sabaeus, Vero) stood at 8 ± 1.8 µM.
